What was measured:
Assay type in all cases: cell-based, human
WNT signaling = test: Immunoblotting of chondrocytes treated with WNT signaling inhibitor; conditions: 10 μM, 4 days, 2D culture in medium E
Experimental: (§1) XAV939 was obtained by Sigma and used at the concentration of 10 μM for 4 days in 2D culture in medium E.
Cells were lysed 30 min on ice in ice-cold RIPA buffer (Life Technologies), supplemented with phosphatase and protease inhibitors (Complete anti-protease cocktail; Roche). Protein (10 μg) was separated by SDS-PAGE (BioRad) and transferred to PVDF membranes (Amersham) Blots were probed with anti-phospho-β-catenin (Cell Signaling; 5651T), TCF-4 (Cell Signaling; 2569), Axin1 (Cell Signaling; 2087), β-actin HRP (Sigma-Aldrich) and GADPH (Cell Signaling; 2118) (1:1000) followed by the HRP-Rabbit or Mouse conjugated antibodies (1:5000).
(§2) In order to validate the role of WNT pathway downregulation during the redifferentiation phase (medium R) (FIG. 1A), the inventors replaced medium R by medium E supplemented with 10 μM of XAV-939, a WNT pathway inhibitor for 4 days (FIG. 7G).

chondrocytes [1] = test: qPCR of ACAN and COL2A1 mRNA in chondrocytes and beads (2-step method) with WNT inhibitor; conditions: 10 μM in medium E; 2-step method after 2D and 3D culture
Experimental: as §1
Isolation of total RNA was performed by using the RNeasy kit from Qiagen according to the manufacturer's instructions and was measured using a spectrometer. 500 ng of total RNA was used to synthesize cDNA using the PrimeScript RT Reagent Kit (Takara) according to manufacturer's protocol.
Real-time PCR was performed with PowerUp SYBR Green Master Mix (Applied Biosystems) using the QuantStudio 12K Flex Real-Time PCR System (Thermo Fisher Scientific) at the Genomic platform core facilities (University of Geneva). First, efficacy tests were performed for all primers for validation prior utilization. The relative level of each sample was normalized, at least, to […] (ALAS1). RT-PCR reactions were carried out, at least, in technical and biological triplicates, and the average cycle threshold (CT) values were determined.
as §2

chondrocytes [2] = test: Safranin-O staining of GAG in beads from chondrocytes cultured in medium E + WNT inhibitor (2-step method); conditions: medium E + 10 μM inhibitor
Experimental: as §1
Safranin-O staining of cartilage spheres and native cartilage formalin-fixed paraffin-embedded samples was performed, in order to reveal glycosaminoglycans (GAG) on 5 μm paraffin slices. Slides were deparaffinated by Xylol and rehydrated by consecutive alcohol bath (concentration 100%, 95% and 70%) with a final 5-minutes distilled water bath. Then, hematoxylin staining was used for nucleus counterstaining, followed by a 5-minutes wash with running hot water. Fast Green (Sigma F7252) was used to stain the cytoplasm, then washed out with acetic acid. The slides were washed out immediately with distilled water. Safranin-O 0.1% in water bath (Sigma S2255) was applied for staining of GAGs for two and a half minutes, then washed repeatedly with distilled water. Dehydration was achieved by vigorously shaking the rack 10-20 times in alcohol baths (concentration 95% and 100%), followed by a Xylol bath until slides assembly with Eukitt resin (Batch A1113, KiNDO1500).
as §2

Oc1nc(-c2ccc(C(F)(F)F)cc2)nc2c1CSCC2 [XAV-939]
axin (immunoblot) (WNT signaling): increase
phospho-β-catenin (immunoblot) (WNT signaling): increase
ACAN expression (chondrocytes [1]): increase
COL2A1 expression (chondrocytes [1]): increase
GAG Safranin-O staining of beads (chondrocytes [2]): presence of hyaline features

Source: US20220315897A1, “METHOD FOR IN VITRO PRODUCTION OF HYALINE CARTILAGE TISSUE” (VANARIX SA, priority 2019, published 2022)
